In PMC2229644 (The Journal of General Physiology, 1999):

How the values were obtained:
potassium channels = settings: cited from earlier work
[1] = system: MaxiK-channel (large conductance Ca-activated K channel); settings: cited from earlier work
[2] = molecular target: Shaker H4 Δ(6-46) K channel (inactivation-removed, Shaker IR) (Drosophila melanogaster, UniProt P08510, DEL6-46); assay type: cell-based
[3] = system: Shaker K channel, inactivation-removed; settings: cited from earlier work

Sequence of Shaker H4 Δ(6-46) K channel (inactivation-removed, Shaker IR) (P08510 1-655 with tags or gaps DEL6-46): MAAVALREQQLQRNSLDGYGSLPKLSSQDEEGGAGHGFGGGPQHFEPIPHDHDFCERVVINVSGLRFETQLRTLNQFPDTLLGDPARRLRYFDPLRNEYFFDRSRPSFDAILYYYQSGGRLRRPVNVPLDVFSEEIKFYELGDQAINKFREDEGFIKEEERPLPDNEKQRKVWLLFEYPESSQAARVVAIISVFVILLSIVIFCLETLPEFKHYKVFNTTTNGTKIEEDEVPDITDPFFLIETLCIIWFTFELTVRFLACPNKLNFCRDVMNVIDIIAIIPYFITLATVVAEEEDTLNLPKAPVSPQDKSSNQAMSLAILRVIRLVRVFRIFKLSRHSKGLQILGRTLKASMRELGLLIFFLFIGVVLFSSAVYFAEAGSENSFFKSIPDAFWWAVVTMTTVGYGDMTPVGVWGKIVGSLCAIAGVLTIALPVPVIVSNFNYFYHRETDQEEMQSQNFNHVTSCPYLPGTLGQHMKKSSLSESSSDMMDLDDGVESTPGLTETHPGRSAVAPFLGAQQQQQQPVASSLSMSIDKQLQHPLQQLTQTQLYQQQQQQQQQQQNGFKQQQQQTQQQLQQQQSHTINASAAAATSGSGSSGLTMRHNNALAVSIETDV

Row | Substance | association rate constant, k on (potassium channels) | effective valence zδ in absence of internally present permeant cations [1] | effect on apparent association rate of κ-PVIIA [2] | effect on dissociation rate of κ-PVIIA [2] | underestimation of κ-PVIIA k on by 1 mM TEA^+ [2] | effect of TEA^+ on CTX association and dissociation rates [1] | effect of external TEA^+ on extent of κ-PVIIA blockade [3]
1 | charybdotoxin [CTX] | 6.1e+07 M⁻¹ s⁻¹ | zδ vanishes |  |  |  |  | 
2 | tetraethylammonium [TEA^+] |  |  | decreases the apparent association rate | little effect on the dissociation rate | ~10% | only reduces the association rate of CTX | reduces the extent of the blockade
